One may read the IC50 as the concentration at which inhibition is half-maximal.

This passage reports IC50 results from ChEMBL document CHEMBL1135312, “N-Aroyl-L-phenylalanine derivatives as VCAM/VLA-4 antagonists” (Bioorg Med Chem Lett, 2002).

The target of test [1] is T1, Integrin alpha-4/beta-1 (Homo sapiens, UniProt P05556+P13612). The test can be described thus: Inhibitory binding concentration against VCAM/VLA-4 in Ramos. The test is classed as protein-complex assay.
Test [2] deals with T1, Integrin alpha-4/beta-1. In words: Inhibitory binding concentration against VCAM/VLA-4 in ELISA. Format: protein-complex assay.

T1 sequence (P05556 whole entry): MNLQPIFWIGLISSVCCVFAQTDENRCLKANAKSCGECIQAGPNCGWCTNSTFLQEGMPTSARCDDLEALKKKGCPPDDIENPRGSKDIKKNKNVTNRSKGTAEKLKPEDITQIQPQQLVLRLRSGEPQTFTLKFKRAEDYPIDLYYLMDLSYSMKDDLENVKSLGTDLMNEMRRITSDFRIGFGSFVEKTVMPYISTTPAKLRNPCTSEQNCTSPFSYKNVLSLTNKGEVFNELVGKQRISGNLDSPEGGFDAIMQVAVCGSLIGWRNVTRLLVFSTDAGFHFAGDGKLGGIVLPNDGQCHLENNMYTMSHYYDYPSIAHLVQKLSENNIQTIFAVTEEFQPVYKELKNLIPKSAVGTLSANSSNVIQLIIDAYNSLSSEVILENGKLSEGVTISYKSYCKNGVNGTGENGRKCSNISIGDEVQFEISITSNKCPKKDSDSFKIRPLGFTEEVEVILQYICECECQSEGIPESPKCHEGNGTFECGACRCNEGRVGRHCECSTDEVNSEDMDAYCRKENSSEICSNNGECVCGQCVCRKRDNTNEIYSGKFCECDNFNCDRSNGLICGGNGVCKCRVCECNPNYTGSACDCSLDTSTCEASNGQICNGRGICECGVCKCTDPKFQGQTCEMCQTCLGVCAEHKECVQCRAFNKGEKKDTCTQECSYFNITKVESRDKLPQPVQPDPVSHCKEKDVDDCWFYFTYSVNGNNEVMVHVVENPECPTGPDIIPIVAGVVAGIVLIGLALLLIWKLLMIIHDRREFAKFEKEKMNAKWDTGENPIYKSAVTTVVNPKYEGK
T1 sequence (P13612 whole entry): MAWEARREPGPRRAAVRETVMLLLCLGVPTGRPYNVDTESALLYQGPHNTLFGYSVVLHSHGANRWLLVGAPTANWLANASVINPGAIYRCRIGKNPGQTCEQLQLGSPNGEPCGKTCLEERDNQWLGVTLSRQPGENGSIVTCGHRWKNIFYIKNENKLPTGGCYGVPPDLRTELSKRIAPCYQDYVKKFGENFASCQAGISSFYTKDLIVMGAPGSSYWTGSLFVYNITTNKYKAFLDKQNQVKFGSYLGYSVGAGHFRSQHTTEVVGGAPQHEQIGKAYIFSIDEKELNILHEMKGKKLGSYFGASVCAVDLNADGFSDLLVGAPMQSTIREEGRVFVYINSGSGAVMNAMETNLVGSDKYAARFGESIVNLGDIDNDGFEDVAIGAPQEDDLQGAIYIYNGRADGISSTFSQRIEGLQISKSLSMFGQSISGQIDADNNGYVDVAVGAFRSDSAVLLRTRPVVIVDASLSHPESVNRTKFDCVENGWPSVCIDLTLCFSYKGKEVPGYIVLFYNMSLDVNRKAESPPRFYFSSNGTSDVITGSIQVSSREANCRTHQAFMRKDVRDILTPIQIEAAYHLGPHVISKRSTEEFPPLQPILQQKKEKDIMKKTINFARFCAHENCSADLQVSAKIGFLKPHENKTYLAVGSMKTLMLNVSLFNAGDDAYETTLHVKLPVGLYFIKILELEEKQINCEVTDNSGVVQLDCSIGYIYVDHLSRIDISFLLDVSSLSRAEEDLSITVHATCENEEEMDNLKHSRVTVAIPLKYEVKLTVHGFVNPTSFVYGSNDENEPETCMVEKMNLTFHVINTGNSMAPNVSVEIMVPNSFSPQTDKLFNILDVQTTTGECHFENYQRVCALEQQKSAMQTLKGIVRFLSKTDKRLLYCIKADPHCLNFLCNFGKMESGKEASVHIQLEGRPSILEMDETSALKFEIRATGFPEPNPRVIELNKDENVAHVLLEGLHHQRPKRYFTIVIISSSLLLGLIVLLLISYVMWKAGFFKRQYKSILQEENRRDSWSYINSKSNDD

As to `CCCc1cccc(C)c1C(=O)N[C@@H](Cc1ccc(NC(=O)c2c(Cl)cccc2Cl)cc1)C(=O)O`, the figures for the IC50 on Integrin alpha-4/beta-1 [1] and on Integrin alpha-4/beta-1 [2] were 17 nM and 0.42 nM, respectively.

Take `O=C(N[C@@H](Cc1ccc(NC(=O)c2c(Cl)cccc2Cl)cc1)C(=O)O)c1cccc(Cl)c1Cl`: the IC50 on Integrin alpha-4/beta-1 [1] came to 1600 nM.

Consider `O=C(Nc1ccc(C[C@H](NC(=O)c2c(F)cccc2C(F)(F)F)C(=O)O)cc1)c1c(Cl)cccc1Cl`, for which the half-maximal inhibitory concentration (IC50) at Integrin alpha-4/beta-1 [2] came to 0.4 nM. This counts as sub-nanomolar.

For the compound `Cc1noc(C)c1C(=O)N[C@@H](Cc1ccc(NC(=O)c2c(Cl)cccc2Cl)cc1)C(=O)O`, the IC50 on Integrin alpha-4/beta-1 [1] worked out at 580 nM; on Integrin alpha-4/beta-1 [2], 15 nM.

As for `CSc1ccccc1C(=O)N[C@@H](Cc1ccc(NC(=O)c2c(Cl)cccc2Cl)cc1)C(=O)O`, the IC50 at Integrin alpha-4/beta-1 [1] is 100 nM; at Integrin alpha-4/beta-1 [2], 0.4 nM.

Turning to `Cc1ncccc1C(=O)N[C@@H](Cc1ccc(NC(=O)c2c(Cl)cccc2Cl)cc1)C(=O)O`, the IC50 came out at 180 nM on Integrin alpha-4/beta-1 [1] and 2 nM on Integrin alpha-4/beta-1 [2].

`Cc1cccc(F)c1C(=O)N[C@@H](Cc1ccc(NC(=O)c2c(Cl)cccc2Cl)cc1)C(=O)O`: the concentration for half-maximal inhibition (IC50) at Integrin alpha-4/beta-1 [1] worked out at 85 nM; at Integrin alpha-4/beta-1 [2], 0.44 nM.

Take `O=C(N[C@@H](Cc1ccc(NC(=O)c2c(Cl)cccc2Cl)cc1)C(=O)O)c1ccccc1C(F)(F)F`: the results for the IC50 at Integrin alpha-4/beta-1 [1] and on Integrin alpha-4/beta-1 [2] were 650 nM and 16 nM, respectively.

Turning to `Cc1nc(C(C)C)sc1C(=O)N[C@@H](Cc1ccc(NC(=O)c2c(Cl)cccc2Cl)cc1)C(=O)O`, the concentration for half-maximal inhibition (IC50) is 69 nM on Integrin alpha-4/beta-1 [1] and 0.56 nM on Integrin alpha-4/beta-1 [2].

Take `Cc1cccc(C(=O)N[C@@H](Cc2ccc(NC(=O)c3c(Cl)cccc3Cl)cc2)C(=O)O)c1Cl`: the IC50 on Integrin alpha-4/beta-1 [1] came to 1300 nM.

`Cc1cccc(C)c1C(=O)N[C@@H](Cc1ccc(NC(=O)c2c(Cl)cccc2Cl)cc1)C(=O)O`: the IC50 worked out at 84 nM on Integrin alpha-4/beta-1 [1] and 1.3 nM at Integrin alpha-4/beta-1 [2].

Regarding `O=C(N[C@@H](Cc1ccc(NC(=O)c2c(Cl)cccc2Cl)cc1)C(=O)O)c1cc(C(F)(F)F)ccc1Cl`, the values for the half-inhibitory concentration (IC50) at Integrin alpha-4/beta-1 [1] and at Integrin alpha-4/beta-1 [2] were 450 nM and 8.8 nM, respectively.

`COc1ccc(Br)c(C(=O)N[C@@H](Cc2ccc(NC(=O)c3c(Cl)cccc3Cl)cc2)C(=O)O)c1`: at Integrin alpha-4/beta-1 [1], the concentration for half-maximal inhibition (IC50) was 19 nM.

`CNc1ccccc1C(=O)N[C@@H](Cc1ccc(NC(=O)c2c(Cl)cccc2Cl)cc1)C(=O)O`: the IC50 on Integrin alpha-4/beta-1 [1] turned out to be 1000 nM.

At Integrin alpha-4/beta-1 [2], `COc1ccc(C(=O)N[C@@H](Cc2ccc(NC(=O)c3c(Cl)cccc3Cl)cc2)C(=O)O)c(Cl)c1` came in with an IC50 of 1.9 nM.

Regarding `Cc1cc(C(F)(F)F)c(C(=O)N[C@@H](Cc2ccc(NC(=O)c3c(Cl)cccc3Cl)cc2)C(=O)O)c(C)n1`, the 50% inhibitory concentration (IC50) at Integrin alpha-4/beta-1 [1] came out at 200 nM. In other words, the sub-micromolar range.

With `CC(=O)c1cccc(Cl)c1C(=O)N[C@@H](Cc1ccc(NC(=O)c2c(Cl)cccc2Cl)cc1)C(=O)O`, the figures for the IC50 at Integrin alpha-4/beta-1 [1] and at Integrin alpha-4/beta-1 [2] were 49 nM and 1.6 nM, respectively.

Turning to `Cc1nn(-c2ccccc2)nc1C(=O)N[C@@H](Cc1ccc(NC(=O)c2c(Cl)cccc2Cl)cc1)C(=O)O`, the IC50 worked out at 1440 nM at Integrin alpha-4/beta-1 [1] and 25 nM at Integrin alpha-4/beta-1 [2].

For `O=C(N[C@@H](Cc1ccc(NC(=O)c2c(Cl)cccc2Cl)cc1)C(=O)O)c1c(F)cccc1F`, the results for the concentration for half-maximal inhibition (IC50) on Integrin alpha-4/beta-1 [1] and at Integrin alpha-4/beta-1 [2] were 67 nM and 1.2 nM, respectively.

Turning to `O=C(N[C@@H](Cc1ccc(NC(=O)c2c(Cl)cccc2Cl)cc1)C(=O)O)c1ccc(Br)cc1Cl`, at Integrin alpha-4/beta-1 [1], the IC50 worked out at 1300 nM.

`O=C(N[C@@H](Cc1ccc(NC(=O)c2c(Cl)cccc2Cl)cc1)C(=O)O)c1sccc1Br`: the values for the IC50 at Integrin alpha-4/beta-1 [1] and on Integrin alpha-4/beta-1 [2] were 890 nM and 1.5 nM, respectively.

In turn, `CC(C)c1cccc(C(C)C)c1C(=O)N[C@@H](Cc1ccc(NC(=O)c2c(Cl)cccc2Cl)cc1)C(=O)O` registered a half-inhibitory concentration (IC50) on Integrin alpha-4/beta-1 [1] of 460 nM.

In the case of `Cc1ccc(Cl)c(C(=O)N[C@@H](Cc2ccc(NC(=O)c3c(Cl)cccc3Cl)cc2)C(=O)O)c1`, the values for the half-maximal inhibitory concentration (IC50) at Integrin alpha-4/beta-1 [1] and at Integrin alpha-4/beta-1 [2] were 460 nM and 11 nM, respectively.

As for `CCc1cccc(C)c1C(=O)N[C@@H](Cc1ccc(NC(=O)c2c(Cl)cccc2Cl)cc1)C(=O)O`, the IC50 on Integrin alpha-4/beta-1 [2] turned out to be 0.3 nM.

On to `O=C(N[C@@H](Cc1ccc(NC(=O)c2c(Cl)cccc2Cl)cc1)C(=O)O)c1cncnc1C(F)(F)F`, for which the concentration for half-maximal inhibition (IC50) on Integrin alpha-4/beta-1 [1] is 190 nM; at Integrin alpha-4/beta-1 [2] it was 2 nM.

On to `COc1ccccc1C(=O)N[C@@H](Cc1ccc(NC(=O)c2c(Cl)cccc2Cl)cc1)C(=O)O`, for which the IC50 at Integrin alpha-4/beta-1 [1] is 6800 nM.

On to `CC(C)(C)c1ccccc1C(=O)N[C@@H](Cc1ccc(NC(=O)c2c(Cl)cccc2Cl)cc1)C(=O)O`, for which the IC50 on Integrin alpha-4/beta-1 [1] came out at 74 nM; on Integrin alpha-4/beta-1 [2] it was 1.9 nM.

Regarding `O=C(N[C@@H](Cc1ccc(NC(=O)c2c(Cl)cccc2Cl)cc1)C(=O)O)c1ccccc1Br`, the IC50 is 45 nM at Integrin alpha-4/beta-1 [1] and 0.49 nM at Integrin alpha-4/beta-1 [2].

In the case of `Cc1cccc(Cl)c1C(=O)N[C@@H](Cc1ccc(NC(=O)c2c(Cl)cccc2Cl)cc1)C(=O)O`, the IC50 on Integrin alpha-4/beta-1 [1] was 12 nM; at Integrin alpha-4/beta-1 [2], 0.3 nM.

As to `Cc1ccnc(C)c1C(=O)N[C@@H](Cc1ccc(NC(=O)c2c(Cl)cccc2Cl)cc1)C(=O)O`, the results for the IC50 at Integrin alpha-4/beta-1 [1] and on Integrin alpha-4/beta-1 [2] were 23 nM and 0.89 nM, respectively.

In turn, `CS(=O)(=O)c1ccccc1C(=O)N[C@@H](Cc1ccc(NC(=O)c2c(Cl)cccc2Cl)cc1)C(=O)O` gave an IC50 on Integrin alpha-4/beta-1 [1] of 160 nM.
